According to patent publication US4415567A, “7α-Methoxycephalosporin derivatives, and antibacterial drugs containing the same” (Eisai Co., Ltd., priority 1980, dated 1983):
Values after ≈ are worked out from the molar mass of the structure shown. Structures can show the parent of a compound that is named as a salt. Where two headings read alike, the source gives them in different places.

Legend:
Assay type in all cases: cell-based
Escherichia coli NIHJ = assay: MIC, standard agar dilution method, Escherichia coli NIHJ
Protocol: (§1) Minimal inhibitory concentration (MIC) was determined by the standard agar dilution method of the Japan Society of Chemotherapy.
(§2) Compounds were dissolved in appropriate solvents (sterilized water for sodium salts and acetone-water [1:1] for free acids) and serial two-fold dilutions were made. Sodium salt of Cefazolin was chosen as the control compound.
(§3) One-ml aliquots of each dilution were mixed with 9 ml of Mueller Hinton gar in petri-dishes to make agar plates containing the compound at serially diluted concentrations. After agar hardened, plates were put in an incubator at 37° C. for 1.5-2 hours with the lids slightly open to evaporate acetone off the plates.
(§4) Test organisms were grown for 18 hours at 37° C. in Trypticase Soy broth and diluted in saline to approximately 10^6 colony forming units per ml. A loopful of each cell suspension was applied on the agar plate mentioned above and the plates were incubated for 18 hours at 37° C. before MIC was determined.
(§5) The results are shown in Table 2, wherein the compound of Example 5 was selected and used in a form of free carboxylic acid as set forth in the Example 5, Item (a).

Proteus morganii EP-14 = assay: MIC, standard agar dilution method, Proteus morganii EP-14; conditions: Morganella morganii, EP14, Mueller Hinton agar, 18 hours, 37° C.
Protocol: as §1, §2, §3, §4, §5

Proteus bulgaris E-18 = assay: MIC, standard agar dilution method, Proteus bulgaris E-18; conditions: Mueller Hinton agar, 18 hours, 37° C.
Protocol: as §1, §2, §3, §4, §5

[1] = tested on: Klebsielle pneumoniae EK-6; assay: MIC, standard agar dilution method, Klebsielle pneumoniae EK-6
Protocol: as §1, §2, §3, §4, §5

[2] = tested on: Serratia marcescens ES-75; assay: MIC, standard agar dilution method, Serratia marcescens ES-75; conditions: ES75, Mueller Hinton agar, 18 hours, 37° C.
Protocol: as §1, §2, §3, §4, §5

[3] = tested on: Pseudomonas aeruginosa EP-172; assay: MIC, standard agar dilution method, Pseudomonas aeruginosa EP-172; conditions: EP172, Mueller Hinton agar, 18 hours, 37° C.
Protocol: as §1, §2, §3, §4, §5

[4] = tested on: Staphylococcus aureus 209-P; assay: MIC, standard agar dilution method, Staphylococcus aureus 209-P; conditions: Mueller Hinton agar, 18 hours, 37° C.
Protocol: as §1, §2, §3, §4, §5

[5] = Escherichia coli NIHJ, Mueller Hinton agar, 18 hours, 37° C., read-out: MIC
[6] = Klebsielle pneumoniae EK-6, Mueller Hinton agar, 18 hours, 37° C., read-out: MIC

| SMILES | MIC (Escherichia coli NIHJ; Escherichia coli, 18 h) [µg/mL] | MIC (Proteus morganii EP-14) [µg/mL] | MIC (Proteus bulgaris E-18) [µg/mL] | MIC ([1]; 18 h) [µg/mL] | MIC [2] [µg/mL] | MIC [3] [µg/mL] | MIC [4] [µg/mL] | MIC (Escherichia coli NIHJ; [5]) [µg/mL] | MIC [1, 6] [µg/mL] |
| --- | --- | --- | --- | --- | --- | --- | --- | --- | --- |
| Cc1nnc(SCC2=C(C(=O)O)N3C(=O)[C@@H](NC(=O)Cn4cnnn4)[C@H]3SC2)s1 [Control, Sodium salt of Cefazolin, reference compound] | 1.56 | > 100 | > 3200 | 1.56 | > 100 | > 100 | 0.4 |  |  |
| CO[C@@]1(NC(=O)[C@H](NC(=O)c2coc3cc(OC(C)=O)c(OC(C)=O)cc3c2=O)c2ccc(O)cc2)C(=O)N2C(C(=O)O)=C(CSc3nnnn3C)CS[C@@H]21 [Example 1, 7β-[D-2-(6,7-Diacetoxychromone-3-carboxamido)-2-(4-hydroxyphenyl)acetamido]-7α-methoxy-3-(1-methyl-5-tetrazolyl)thiomethyl-3-cephem-4-carboxylic acid] |  | 3.13 (≈ 3.93 µM) | 0.4 (≈ 0.503 µM) |  | ≤ 0.1 | 0.4 (≈ 0.503 µM) | 1.56 (≈ 1.96 µM) | 0.4 (≈ 0.503 µM) | ≤ 0.1 |
| CO[C@@]1(NC(=O)[C@H](NC(=O)c2coc3c(OC(C)=O)c(OC(C)=O)ccc3c2=O)c2ccc(O)cc2)C(=O)N2C(C(=O)O)=C(CSc3nnnn3C)CS[C@@H]21 [Example 2] |  | 50 (≈ 62.8 µM) | 6.25 (≈ 7.85 µM) |  | 0.8 (≈ 1.01 µM) | 0.8 (≈ 1.01 µM) | 1.56 (≈ 1.96 µM) | 3.13 (≈ 3.93 µM) | ≤ 0.1 |
| CO[C@@]1(NC(=O)[C@H](NC(=O)c2coc3c(O)c(O)ccc3c2=O)c2ccc(O)cc2)C(=O)N2C(C(=O)O)=C(CSc3nnnn3C)CS[C@@H]21 [Example 4, 7β-[D-2-(7,8-Dihydroxychromone-3-carboxyamido)-2-(4-hydroxyphenyl)acetamido]-7α-methoxy-3-(1-methyl-5-tetrazolyl)thiomethyl-3-cephem-4-carboxylic acid] |  | 50 (≈ 70.3 µM) | 3.13 (≈ 4.4 µM) |  | 0.8 (≈ 1.12 µM) | 0.8 (≈ 1.12 µM) | 3.13 (≈ 4.4 µM) | 3.13 (≈ 4.4 µM) | ≤ 0.1 |
| CO[C@@]1(NC(=O)[C@H](NC(=O)c2coc3cc(O)c(O)cc3c2=O)c2ccccc2)C(=O)N2C(C(=O)O)=C(COC(C)=O)CS[C@@H]21 [Example 5, 7β-[D-2-(6,7-Dihydroxychromone-3-carboxamido)-2-phenylacetamido]-7α-methoxy-3-acetoxymethyl-3-cephem-4-carboxylic acid] |  | 25 (≈ 39.1 µM) | 0.8 (≈ 1.25 µM) |  | 0.2 (≈ 0.313 µM) | 3.13 (≈ 4.89 µM) | 3.13 (≈ 4.89 µM) | 0.8 (≈ 1.25 µM) | ≤ 0.1 |
| CO[C@@]1(NC(=O)[C@H](NC(=O)c2coc3cc(O)c(O)cc3c2=O)c2ccccc2)C(=O)N2C(C(=O)O)=C(CSc3nnc(C)s3)CS[C@@H]21 [Example 6, 7β-[D-2-(6,7-Dihydroxychromone-3-carboxyamido)-2-phenylacetamido]-7α-methoxy-3-[2-5-methyl-2-(1,3,4-thiadiazolyl)]thiomethyl-3-cepnem-4-carboxylic acid] |  | 12.5 (≈ 17.6 µM) | 0.8 (≈ 1.12 µM) |  | ≤ 0.1 | 3.13 (≈ 4.4 µM) | 3.13 (≈ 4.4 µM) | 0.8 (≈ 1.12 µM) | ≤ 0.1 |
| CO[C@@]1(NC(=O)[C@H](NC(=O)c2coc3c(O)c(O)ccc3c2=O)c2ccccc2)C(=O)N2C(C(=O)O)=C(COC(C)=O)CS[C@@H]21 [Example 7, 7β-[D-2-(7,8-Dihydroxychromone-3-carboxyamido)-2-phenylacetamido]-7α-methoxy-3-acetoxymethyl-3-cephem-4-carboxylic acid] |  | 100 (≈ 156 µM) | 50 (≈ 78.2 µM) |  | 12.5 (≈ 19.5 µM) | 3.13 (≈ 4.89 µM) | 6.25 (≈ 9.77 µM) | 3.13 (≈ 4.89 µM) | 0.2 (≈ 0.313 µM) |
| CO[C@@]1(NC(=O)[C@H](NC(=O)c2coc3ccccc3c2=O)c2ccc(O)cc2)C(=O)N2C(C(=O)O)=C(CSc3nnnn3C)CS[C@@H]21 [Example 10, 7β-[D-2-(Chromone-3-carboxamido)-2-(4-hydroxyphenyl)acetamido]-7α-methoxy-3-(1-methyl-5-tetrazolyl)thiomethyl-3-cephem-4-carboxylic acid] |  | 25 (≈ 36.8 µM) | 50 (≈ 73.6 µM) |  | 12.5 (≈ 18.4 µM) | 25 (≈ 36.8 µM) | 0.4 (≈ 0.589 µM) | 12.5 (≈ 18.4 µM) | 12.5 (≈ 18.4 µM) |
| CO[C@@]1(NC(=O)[C@H](NC(=O)c2coc3c(C)c(OCc4ccccc4)ccc3c2=O)c2ccccc2)C(=O)N2C(C(=O)O)=C(COC(C)=O)CS[C@@H]21 [Example 13, 7β-[D-2-(7-Benzyloxy-8-methylchromone-3-carboxamido)-2-phenylacetamido]-7α-methoxy-3-acetoxymethyl-3-cephem-4-carboxylic acid] |  | 1.56 (≈ 2.14 µM) | 0.8 (≈ 1.1 µM) |  | 3.13 (≈ 4.3 µM) | 12.5 (≈ 17.2 µM) | 0.4 (≈ 0.55 µM) | 3.13 (≈ 4.3 µM) | 3.13 (≈ 4.3 µM) |
| CO[C@@]1(NC(=O)[C@H](NC(=O)c2coc3cc(O)c(O)cc3c2=O)c2ccc(O)cc2)C(=O)N2C(C(=O)O)=C(CSc3nnnn3CC(=O)O)CS[C@@H]21 [Example 15, 7β-[D-2-(6,7-Dihydroxychromone-3-carboxamido)-2-(4-hydroxyphenyl)acetamido]-7α-methoxy-3-(1-carboxymethyl-5-tetrazolyl)thiomethyl-3-cephem-4-carboxylic acid] |  | 12.5 (≈ 16.5 µM) | 1.56 (≈ 2.06 µM) |  | 0.4 (≈ 0.529 µM) | 3.13 (≈ 4.14 µM) | 6.25 (≈ 8.27 µM) | 6.25 (≈ 8.27 µM) | ≤ 0.1 |
| CO[C@@]1(NC(=O)[C@H](NC(=O)c2coc3c(O)c(O)ccc3c2=O)c2ccc(O)cc2)C(=O)N2C(C(=O)O)=C(CSc3nnnn3CC(=O)O)CS[C@@H]21 [Example 18, 7β-[D-2-(7,8-Dihydroxychromone-3-carboxamido)-2-(4-hydroxyphenyl)acetamido]-7α-methoxy-3-(1-carboxymethyl-5-tetrazolyl)thiomethyl-3-cephem-4-carboxylic acid] |  | 50 (≈ 66.2 µM) | 6.25 (≈ 8.27 µM) |  | 3.13 (≈ 4.14 µM) | 6.25 (≈ 8.27 µM) | 25 (≈ 33.1 µM) | 25 (≈ 33.1 µM) | 0.8 (≈ 1.06 µM) |
| COC(=O)Cn1nnnc1SCC1=C(C(=O)O)N2C(=O)[C@](NC(=O)[C@H](NC(=O)c3coc4cc(O)c(O)cc4c3=O)c3ccc(O)cc3)(OC)[C@H]2SC1 [Example 19, 7β-[D-2-(6,7-Dihydroxychromone-3-carboxamido)-2-(4-hydroxyphenyl)acetamido]-7α-methoxy-3-(1-methoxycarbonylmethyl-5-tetrazolyl)thiomethyl-3-cephem-4-carboxylic acid] |  | 1.56 (≈ 2.03 µM) | 0.4 (≈ 0.52 µM) |  | ≤ 0.1 | 0.8 (≈ 1.04 µM) | 3.13 (≈ 4.07 µM) | 1.56 (≈ 2.03 µM) | ≤ 0.1 |
| CCOC(=O)Oc1cc2occ(C(=O)N[C@@H](C(=O)N[C@]3(OC)C(=O)N4C(C(=O)O)=C(COC(C)=O)CS[C@@H]43)c3ccc(O)cc3)c(=O)c2cc1OC(=O)OCC [Example 22, 7β-[D-2-(6,7-Bis(ethoxycarbonyloxy)chromone-3-carboxamido)-2-(4-hydroxyphenyl)acetamido]-7α-methoxy-3-acetoxymethyl-3-cephem-4-carboxylic acid] |  | 25 (≈ 31.3 µM) | 1.56 (≈ 1.95 µM) |  | 0.4 (≈ 0.5 µM) | 0.8 (≈ 1 µM) | 1.56 (≈ 1.95 µM) | 6.25 (≈ 7.82 µM) | ≤ 0.1 |
| CO[C@@]1(NC(=O)[C@H](NC(=O)c2coc3cc(OC(=O)OCC(Cl)(Cl)Cl)c(OC(=O)OCC(Cl)(Cl)Cl)cc3c2=O)c2ccccc2)C(=O)N2C(C(=O)O)=C(COC(C)=O)CS[C@@H]21 [Example 24, 7β-[D-2-(6,7-Bis(2,2,2-trichloroethoxy-carbonyloxy)chromon-3-carboxamido)2-phenylacetamido]-7α-methoxy-3-acetoxymethyl-3-cephem-4-carboxylic acid] |  | 25 (≈ 25.2 µM) | 3.13 (≈ 3.16 µM) |  | 0.8 (≈ 0.808 µM) | 1.56 (≈ 1.58 µM) | 6.25 (≈ 6.31 µM) | 12.5 (≈ 12.6 µM) | ≤ 0.1 |
